# From article PMC12692291, “Development and In Vitro Evaluation of [^64Cu]Cu-NOTA-TP-PSMA, a Novel Radiotheranostic Agent Against Prostate Cancer” (International Journal of Molecular Sciences, 2025)
# Columns and labels:
# LNCaP cells [1] = experiment: Nuclear localization in LNCaP cells; assay type: cell-based
# Experimental: To assess nuclear localization, LNCaP and HEK-293 cells were incubated with 1 MBq of [^64Cu]Cu-NOTA-TP-PSMA 1 for 24, 48, and 72 h. Nuclear extraction was performed following a previously established protocol. Following incubation, cells were lysed and fractionated using cytoskeletal buffer to isolate nuclear components. Nuclear and cytoplasmic radioactivity were measured using a HIDEX automatic gamma counter. Data were used to evaluate time-dependent nuclear accumulation of the tracer.
# [2] = In vitro plasma stability and plasma protein binding; assay type: in vitro ADME; details: mouse plasma, 37 °C, 24 h
# Experimental: The in vitro plasma stability of [^64Cu]Cu-NOTA-TP-PSMA 1 was evaluated by incubating […] of the radiolabeled compound (in 250 μL PBS) with 250 μL of freshly collected mouse plasma at 37 °C for up to 24 h. At predefined time points, (1 h, 4 h and 24 h) plasma proteins were precipitated by adding ethanol (1:1, v/v) in two successive steps, followed by vortexing (1 min) and centrifugation at 7000 rpm for 10 min. The resulting supernatant was subjected to ultracentrifugation to ensure complete removal of particulate matter.
# For assessment of in vitro stability, the clarified supernatant was analyzed by radio-instant thin-layer chromatography (radio-iTLC) on C18 silica gel plates, using 0.1 M sodium citrate buffer (pH 5.5) as the mobile phase. Radiodetection was performed using an Instant Imager system (BioScan, Washington, DC, USA). Free [^64Cu]Cu(OAc)2 and intact [^64Cu]Cu-NOTA-TP-PSMA served as controls to facilitate peak identification. Under these chromatographic conditions, the radiolabeled complex remained at the origin, while free copper migrated with the solvent front (Figure S5).
# To quantify the extent of protein binding, radioactivity in both the protein pellet and the supernatant was measured using a dose calibrator. The percentage of protein-bound radioactivity was calculated by comparing the activity in the precipitated fraction relative to the total recovered activity. […]
# LNCaP cells [3] = experiment: Efflux (retention) study in LNCaP cells; assay type: cell-based; details: Table S3 first part (LNCaP)
# Experimental: (§1) Efflux studies were conducted by incubating the cells with the compound for an initial period of 1 h, after which the incubation medium was replaced with fresh, compound-free medium. The retained intracellular radioactivity was then measured at various time points up to 24 h and expressed as the percentage of retention relative to the 0-h time point, defined as the time immediately after medium replacement.
# HEK-293 cells [4] = experiment: Efflux (retention) study in HEK-293 cells; assay type: cell-based, human; details: Table S3 second part (HEK-293)
# Experimental: as §1
# LNCaP cells [5] = assay type: cell-based; details: LNCaP, 24 h
# Experimental: (§2) The cytotoxicity of compounds 1–3, ^natCu-NOTA-TP-PSMA, and cisplatin (platinum-based drug) were assessed with PrestoBlue, a resazurin-based method to assess mitochondrial function in LNCaP and HEK-293 cells at 24, 48, and 72 h. Effective concentration (EC50) values summarized in Table 3 were calculated from the dose–response curves of each compound (Figure S7).
# (§3) Cytotoxicity was evaluated using a resazurin-based assay (PrestoBlue) in 96-well plates. LNCaP (15,000 cells/well) and HEK-293 (10,000 cells/well) were seeded and incubated for 72 h. Cells were then treated with serial dilutions of [^64Cu]Cu-NOTA-TP-PSMA and controls for 24, 48, or 72 h. After treatment, cells were rinsed with PBS and incubated with PrestoBlue reagent for 40 min. Fluorescence was measured at 570 nm (excitation) and 610 nm (emission). Background readings from blank wells were subtracted. Cell viability was calculated relative to untreated controls. IC50 values were determined using dose–response curves. Controls included [^64Cu]Cu-NOTA-TP, [^64Cu]Cu-NOTA-PSMA, ^natCu-NOTA-TP-PSMA, and cisplatin (0–500 µM in 0.9% saline). All assays were performed in triplicate and all data presented in Results are the average of three independent experiments. TP conjugates were dissolved in 1% DMSO and diluted in saline. Inhibitory concentration 50 (IC50) values were calculated to quantify the effectiveness of the compounds.
# HEK-293 cells [6] = experiment: PrestoBlue cytotoxicity assay in HEK-293 cells; assay type: cell-based, human; details: consistently across time points; read-out: EC50 in HEK-293 cells
# Experimental: as §2, §3
# HEK-293 cells [7] = experiment: Cellular uptake and internalization in HEK-293 cells; assay type: cell-based, human
compound,measurement,setting,value
O=C(O)CC[C@H](NC(=O)N[C@@H](CCCCNC(=O)[C@@H](Cc1ccc2ccccc2c1)NC(=O)C1CCC(CNC(=O)C(CCCCNC(=O)c2cc3[n+]4c(c2)-c2cccc[n+]2[Pt-2]4([Cl])[n+]2ccccc2-3)NC(=O)COCCOCCNC(=O)CN2CCN3CCN(CC2)CC(=O)[O][64Cu][O]C(=O)C3)CC1)C(=O)O)C(=O)O (stereo partly drawn) [[^64Cu]Cu-NOTA-TP-PSMA 1],nuclear uptake fold difference LNCaP vs HEK-293,LNCaP cells [1]; 24 h,84 fold
same,nuclear uptake in LNCaP cells,LNCaP cells [1]; 24 h,~ 7 % CPM/10^6 cells
same,nuclear uptake fold difference LNCaP vs HEK-293,LNCaP cells [1]; 48 h,36 fold
same,nuclear uptake fold difference LNCaP vs HEK-293,LNCaP cells [1]; 72 h,1.8 fold
same,fold higher nuclear uptake than monomer 2,"LNCaP cells [1]; LNCaP, 24 h",~ 13 fold
same,fold higher nuclear uptake than monomer 3,"LNCaP cells [1]; LNCaP, 24 h",~ 16 fold
same,Nuclear uptake LNCaP,"LNCaP cells [1]; Table S4, 24 h",6.96 ± 1.97 %ID/10⁶ cells
same,Nuclear uptake LNCaP,"LNCaP cells [1]; Table S4, 48 h",5.66 ± 2.09 %ID/10⁶ cells
same,Nuclear uptake LNCaP,"LNCaP cells [1]; Table S4, 72 h",1.53 ± 0.38 %ID/10⁶ cells
same,free 64Cu2+ in protein-free supernatant (radio-iTLC),[2],no evidence of free ^64Cu^2+
same,total radioactivity bound to plasma proteins,[2],approximately 91%
same,Retained activity,LNCaP cells [3]; 0 h after medium replacement,100 ± 0 %CPM/106 cells
same,Retained activity,LNCaP cells [3]; 1 h,85.36 ± 11.10 %CPM/106 cells
same,Retained activity,LNCaP cells [3]; 2 h,71.36 ± 13.48 %CPM/106 cells
same,Retained activity,LNCaP cells [3]; 4 h,67.8 ± 9.3 %CPM/106 cells
same,Retained activity,LNCaP cells [3]; 24 h,51.7 ± 9.4 %CPM/106 cells
same,Retained activity,HEK-293 cells [4]; 0 h after medium replacement,100 ± 0 %CPM/106 cells
same,Retained activity,HEK-293 cells [4]; 1 h,97.8 ± 4.3 %CPM/106 cells
same,Retained activity,HEK-293 cells [4]; 2 h,62.6 ± 18.6 %CPM/106 cells
same,Retained activity,HEK-293 cells [4]; 4 h,41.5 ± 9.9 %CPM/106 cells
same,Retained activity,HEK-293 cells [4]; 24 h,17.1 ± 1.9 %CPM/106 cells
same,fold more potent than monomer 2,LNCaP cells [5],~ 5 fold
same,fold more potent than monomer 3,LNCaP cells [5],~ 16 fold
same,EC50,HEK-293 cells [6],> 250 nM
same,Internalization,"HEK-293 cells [7]; HEK-293, 24 h",7.6 ± 1.7 % CPM/10^6 cells
same,Uptake,"HEK-293 cells [7]; HEK-293, 24 h",8.30 ± 1.63 %CPM/10^6 cells
same,Internalization HEK-293,"HEK-293 cells [7]; Table S2, 1 h",4.46 ± 6.12 %ID/10⁶ cells
same,Uptake HEK-293,"HEK-293 cells [7]; Table S2, 1 h",3.15 ± 0.53 %ID/10⁶ cells
same,Internalization HEK-293,"HEK-293 cells [7]; Table S2, 2 h",3.34 ± 1.41 %ID/10⁶ cells
same,Uptake HEK-293,"HEK-293 cells [7]; Table S2, 2 h",3.78 ± 0.95 %ID/10⁶ cells
same,Internalization HEK-293,"HEK-293 cells [7]; Table S2, 4 h",3.26 ± 0.44 %ID/10⁶ cells
same,Uptake HEK-293,"HEK-293 cells [7]; Table S2, 4 h",5.27 ± 1.00 %ID/10⁶ cells
same,Internalization HEK-293,"HEK-293 cells [7]; Table S2, 20 h",6.12 ± 0.88 %ID/10⁶ cells
same,Uptake HEK-293,"HEK-293 cells [7]; Table S2, 20 h",8.00 ± 2.25 %ID/10⁶ cells
same,Internalization HEK-293,"HEK-293 cells [7]; Table S2, 24 h",7.65 ± 1.67 %ID/10⁶ cells
same,Uptake HEK-293,"HEK-293 cells [7]; Table S2, 24 h",8.30 ± 1.63 %ID/10⁶ cells
